Data set [1] can be described thus: Hygroscopicity: crystal forms exposed to different levels of humidity for one week, then analysed by TGA and XRD. In kind it is physicochemical. The following applies: for LOD(%): one week, TGA. How it is done: The hygroscopicity of monosodium mycophenolate crystal forms M1, M2, M3 and disodium mycophenolate crystal forms D1 and D1±D2 were also investigated. Form M1, M2, M3, D1 and D1±D2 were exposed to different level of humidity for one week and after equilibrium they were analysed by TGA and XRD for water content and crystal structure. Table 5 summarizes the results:
(§1) ARL X-ray powder diffractometer model X′TRA-030, Peltier detector, round standard aluminum sample holder with round zero background quartz plate was used. Scanning parameters: Range: 2-40 deg. 2 θ, continuous Scan, Rate: 3 deg./min. The accuracy of peak positions is defined as ±/−0.2 degrees due to experimental differences like instrumentations, sample preparations etc.
• TGA/SDTA 851^e, Mettler Toledo, Sample weight 7-15 mg. • Heating rate: 10° C./min., In N2 stream: flow rate=50 ml/min • Scan range: 30-250° C. Microscope
200 mg of each of the following samples: crystal Form M2, crystal Form M3 and crystal Form D1 were put at room temperature into a hygroscopicity chamber containing 100% relative humidity for one week. After one week they were measured again by XRD to determine their crystal forms.

Data set [2] in a line: Crystal form transformation by heating in an oven at atmospheric pressure, XRD before and after. In kind it is physicochemical. The following applies: for Crystal form after heating (XRD): 30 min., atmospheric pressure. As to the method: Representatives of all monosodium and disodium mycophenolate crystal forms, M1, M2, M1±M3, D1 and D1±D2 were heated in an oven at atmospheric pressure at 130° C. and 170° C. for 30 minutes. The samples were analyzed by XRD before and after heating.
as §1
200 mg of a mixture of Forms M1±M3 as identified by XRD, was put into an oven in a glass weighing bottle at 170° C. for 0.5 h. Then it was put into a desiccator and allowed to cool to room temperature. […] Transformation of M2 to M1, M3 to M1 and D1 to D2 by water vapors absorption

Where two headings read alike, the source gives them in different places.

On to `COc1c(C)c2c(c([O-])c1C/C=C(\C)CCC(=O)[O-])C(=O)OC2.[Na+].[Na+]` [D1 + D2, disodium mycophenolate], for which the “LOD(%)” value is recorded as 10.2% in data set [1] (20% RH), 10.3% in data set [1] (40% RH), 16.9% in data set [1] (80% RH) and 42.1% in data set [1] (100% RH).
Regarding `COc1c(C)c2c(c([O-])c1C/C=C(\C)CCC(=O)[O-])C(=O)OC2.[Na+].[Na+]` [Form D1, disodium mycophenolate], the “LOD(%)” value is 2.17% in data set [1] (40% RH, listed as D1); 11.64% in data set [1] (60% RH); 17.20% in data set [1] (80% RH, listed as D1); 31.87% in data set [1] (100% RH, listed as D1). In addition, in data set [2], the “relative stability of the form at high temperature” value is “the most stable forms at high temperature”.
Regarding `COc1c(C)c2c(c([O-])c1C/C=C(\C)CCC(=O)[O-])C(=O)OC2.[Na+].[Na+]` [Form D2, disodium mycophenolate], in data set [1] (room temperature, high relative humidity), the “relative stability of the form at high relative humidity” value is reported as “the most stable form at room temperature, at high relative humidity”.
Take `COc1c(C)c2c(c(O)c1C/C=C(\C)CCC(=O)O)C(=O)OC2` [Form M1, mycophenolate sodium]: the “relative stability of the form at high relative humidity” value in data set [1] was “the most stable form at room temperature, at high relative humidity”.
Take `COc1c(C)c2c(c(O)c1C/C=C(\C)CCC(=O)O)C(=O)OC2` [Form M2, mycophenolate sodium]: the “relative stability of the form at high temperature” value in data set [2] (heating at 130° C. and 170° C.) was “the most stable forms at high temperature”.
For the compound `COc1c(C)c2c(c(O)c1C/C=C(\C)CCC(=O)[O-])C(=O)OC2.[Na+]` [M1 + M3, mycophenolate sodium], the figures for the “Crystal form after heating (XRD)” value in data set [2] (130° C.) and in data set [2] (170° C.) were “M3 > Ml” and “Form M2”, respectively.
On to `COc1c(C)c2c(c([O-])c1C/C=C(\C)CCC(=O)[O-])C(=O)OC2.[Na+].[Na+]` [disodium mycophenolate], for which the equilibrium water content entry in data set [1] (after humidity exposure) is listed as “about 17%”.
